The numbers were not newly measured in patent US10842782B2, “Storage stable composition comprising rifaximin alpha” (Sandoz AG, priority 2016, dated 2020), which cites them from elsewhere.

SMILES strings stand for the structures.

For the data set the following is noted: single 400 mg dose.

As usually defined, the AUC is concentration integrated over time. The Cmax is the maximum level reached in the sampled fluid or tissue. For the compound `CO[C@H]1/C=C/O[C@@]2(C)Oc3c(C)c(O)c4c(O)c(c5c(nc6cc(C)ccn65)c4c3C2=O)NC(=O)/C(C)=C\C=C\[C@H](C)[C@H](O)[C@@H](C)[C@@H](O)[C@@H](C)[C@H](OC(C)=O)[C@@H]1C` [Alpha, (2S,16Z,18E,20S,21S,22R,23R,24R,25S,26S,27S,28E)-5,6,21,23,25-pentahydroxy-27-methoxy-2,4,11,16,20,22,24,26-octamethyl-2,7-(epoxypentadeca[1,11,13]trienimino) benzofuro[4,5-e]pyrido[1,2-a]-benzimidazole-1,15(2H)-dione,25-acetate], the AUC is 17 ng·h/mL and the Cmax was 2.6 ng/mL.

Consider `CO[C@H]1/C=C/O[C@@]2(C)Oc3c(C)c(O)c4c(O)c(c5c(nc6cc(C)ccn65)c4c3C2=O)NC(=O)/C(C)=C\C=C\[C@H](C)[C@H](O)[C@@H](C)[C@@H](O)[C@@H](C)[C@H](OC(C)=O)[C@@H]1C` [Delta, (2S,16Z,18E,20S,21S,22R,23R,24R,25S,26S,27S,28E)-5,6,21,23,25-pentahydroxy-27-methoxy-2,4,11,16,20,22,24,26-octamethyl-2,7-(epoxypentadeca[1,11,13]trienimino) benzofuro[4,5-e]pyrido[1,2-a]-benzimidazole-1,15(2H)-dione,25-acetate], for which the exposure (AUC) was 830 ng·h/mL and the Cmax was 308.3 ng/mL.
